Measurements as given in paper PMC6917776, “Discovery of a chemical probe for PRDM9” (Nature Communications, 2019).
Where “and” joins values, the source holds several entries; their conditions need not be identical. Equal values may be shown once. Read-outs that look alike come from different tables or passages of the source.

Key:
[1] = biological target: T1, PRDM9 (Homo sapiens, UniProt Q9NQV7); assay: MOA determination: IC50 at varying SAM or peptide concentrations (SPA); assay type: biochemical
T1 construct: PRDM9 (amino acids: 195–415)
T1 sequence (Q9NQV7 195-415): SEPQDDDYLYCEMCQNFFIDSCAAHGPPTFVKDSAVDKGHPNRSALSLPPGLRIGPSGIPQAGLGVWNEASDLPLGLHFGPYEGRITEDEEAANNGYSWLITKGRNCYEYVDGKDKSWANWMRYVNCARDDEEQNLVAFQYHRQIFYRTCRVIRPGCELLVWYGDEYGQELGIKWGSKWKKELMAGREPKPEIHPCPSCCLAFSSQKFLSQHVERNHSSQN
From the text: Reactions (in quadruplicates) were initiated by adding SAM and followed by measuring the methyltransferase activity using SPA assay. The determined IC50 values were fitted against the corresponding substrate concentrations. An increase in IC50 values when concentration of peptide was increased indicated a peptide-competitive pattern of inhibition.

[2] = biological target: T2, Histamine H3 (Homo sapiens, UniProt Q9Y5N1); assay: GPCR functional activity, GloSensor assay (agonist and antagonist mode); assay type: cell-based
T2 construct: NIMH Psychoactive Drug Screening Program, University of North Carolina at Chapel Hill
T2 sequence (Q9Y5N1 whole entry): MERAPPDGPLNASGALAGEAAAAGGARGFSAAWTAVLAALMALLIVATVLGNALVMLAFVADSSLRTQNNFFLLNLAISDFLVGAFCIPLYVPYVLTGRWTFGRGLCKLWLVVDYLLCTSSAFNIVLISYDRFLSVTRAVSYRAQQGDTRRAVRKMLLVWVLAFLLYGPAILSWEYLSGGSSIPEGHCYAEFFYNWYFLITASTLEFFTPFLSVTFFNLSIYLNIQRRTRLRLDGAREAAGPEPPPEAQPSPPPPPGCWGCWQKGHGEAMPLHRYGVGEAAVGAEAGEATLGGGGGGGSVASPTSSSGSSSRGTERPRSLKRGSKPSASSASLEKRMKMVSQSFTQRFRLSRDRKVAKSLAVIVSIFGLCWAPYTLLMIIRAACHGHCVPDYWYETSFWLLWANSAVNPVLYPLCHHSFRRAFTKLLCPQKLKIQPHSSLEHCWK
From the text: Supplementary Figure 5. Assessment of GPCR functional activity. GloSensor® assay was
profiles were generously provided by the National Institute of Mental Health’s (NIMH)
Psychoactive Drug Screening Program, (Contract # HHSN-271-2013-00017-C) directed by B.L.
Roth, University of North Carolina at Chapel Hill and Project Officer J. Driscoll at NIMH,
Bethesda, Maryland, USA. Further details available at https://pdspdb.unc.edu/pdspWeb/.
MOR stands for “Opiate µ receptor”. […]
[…] Source data are provided as a

[3] = biological target: PRDM9 (Homo sapiens, UniProt Q9NQV7); assay: PRDM9 cellular assay: H3K4me3 of exogenous H3-GFP in MCF7 cells (western blot); assay type: cell-based; conditions: for H3K4me3/GFP - western blot: MCF7, 20 h, replicates
Procedure: HEK293T (kind gift from Sam Benchimol, York University), or MCF7 (ATCC® HTB-22™), cells were plated (12 well plates) and next day co-transfected with 0.1 (HEK293T) or 0.2 (MCF7) µg of GFP-tagged histone H3 and with 0.1 (HEK293T) or 0.2 (MCF7) µg of Flag-tagged PRDM9/PRDM9 catalytic mutant (Y357S) and 0.8 or 0.6 µg of empty vector using JetPRIME® transfection reagent, following manufacturer instructions. After 4 h media was removed and cells were treated with compounds for 20 h. Next day, cells were lysed in lysis buffer (20 mM Tris-HCl pH 8, 150 mM NaCl, 1 mM EDTA, 10 mM MgCl2, 0.5% TritonX-100, 12.5 U mL^−1 benzonase (Sigma), complete EDTA-free protease inhibitor cocktail (Roche)). After 2 min incubation at RT, SDS was added to final 1% concentration. Cell lysates were analyzed in western blot for GFP and H3K4me3 levels. All cell lines were mycoplasma negative, as determined by MycoAlert™ Mycoplasma Detection Kit (Lonza).
Total cell lysates were resolved in 4–12% Bis-Tris Protein Gels (Invitrogen) and transferred in for 1.5 h (80 V) onto PVDF membrane (Millipore) in Tris-Glycine transfer buffer containing 20% MeOH and 0.05% SDS. Blots were blocked for 1 h in blocking buffer (5% milk in PBS) and incubated with primary antibodies anti-GFP (1:3000, Clontech # 632381), anti-H3K4me3 (1:1000, Millipore, #04-745), anti-histone H3 (1:2000, #ab10799, Abcam), anti-Flag (1:5000, #F4799, Sigma) in blocking buffer (5% BSA in 0.1% Tween 20 PBS) overnight at 4 °C. After five washes with 0.1% Tween 20 PBS the blots were incubated with goat-anti rabbit (IR800) and donkey anti-mouse (IR 680) antibodies (1:5000) in Odyssey Blocking Buffer (LiCor) for 1 h at RT and washed five times with 0.1% Tween 20 PBS. The signal was read on an Odyssey scanner (LiCor) at 800 nm and 700 nm and analyzed with Image Studio Ver.5.2 software. […]
exogenous histone H3 in MCF7 cells. […]
dependent K4 trimethylation of exogenous histone H3 in MCF7 cells. Cells were co-transfected with H3-GFP and PRDM9-FLAG and treated with compounds at indicated concentrations for 20 h. (b) The graph represents non-linear fit of H3K4me3 fluorescence intensities normalized to intensities of GFP. The results are from two independent experiments (n=2). Source data are provided as a Source Data file.
(1 picture or pasted object on this page, not shown here)
Target sequence in this assay (Q9NQV7 whole entry): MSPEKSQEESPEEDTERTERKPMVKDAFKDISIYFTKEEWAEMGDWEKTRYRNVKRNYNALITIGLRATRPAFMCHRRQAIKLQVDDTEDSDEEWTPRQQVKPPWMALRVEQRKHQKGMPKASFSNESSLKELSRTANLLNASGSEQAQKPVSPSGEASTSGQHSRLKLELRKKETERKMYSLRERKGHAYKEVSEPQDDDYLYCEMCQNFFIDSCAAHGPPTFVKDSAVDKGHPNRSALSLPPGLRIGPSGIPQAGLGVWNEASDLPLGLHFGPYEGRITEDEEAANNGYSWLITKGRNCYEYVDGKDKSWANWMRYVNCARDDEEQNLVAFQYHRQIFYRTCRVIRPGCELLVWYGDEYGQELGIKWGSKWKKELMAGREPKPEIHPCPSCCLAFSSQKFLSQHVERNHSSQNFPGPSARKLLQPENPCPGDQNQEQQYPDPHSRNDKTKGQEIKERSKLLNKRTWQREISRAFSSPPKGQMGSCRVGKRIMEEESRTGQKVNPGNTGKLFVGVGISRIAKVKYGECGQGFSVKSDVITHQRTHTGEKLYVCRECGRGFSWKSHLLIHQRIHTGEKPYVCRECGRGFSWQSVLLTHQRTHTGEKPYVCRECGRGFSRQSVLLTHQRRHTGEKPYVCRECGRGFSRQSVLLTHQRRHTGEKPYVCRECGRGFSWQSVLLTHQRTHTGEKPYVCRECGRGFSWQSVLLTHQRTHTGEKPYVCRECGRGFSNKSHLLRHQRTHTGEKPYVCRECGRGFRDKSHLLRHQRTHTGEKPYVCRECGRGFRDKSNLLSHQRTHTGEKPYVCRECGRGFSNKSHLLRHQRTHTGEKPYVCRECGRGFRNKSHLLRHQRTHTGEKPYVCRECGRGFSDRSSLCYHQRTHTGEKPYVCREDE

SMILES: COc1cc(OC)cc(-c2noc(N3CCN(C)C4(CCN(c5ccnc(C)c5)CC4)C3)n2)c1 [MRK-740]
- Pattern of PRDM9 inhibition with respect to SAM ([1]; 20 µM peptide, SAM 22 to 350 µM): uncompetitive pattern
- Ki ([1]; 20 µM peptide, varying SAM, read-out: Ki, estimated from asymptote of Fig 2d): ~160 nM
- Pattern of PRDM9 inhibition with respect to peptide (H3 1–25) substrate ([1]; 350 µM SAM, peptide 1.25 to 20 µM): competitive pattern of PRDM9 inhibition
- Ki ([1]; 350 µM SAM, varying H3 1–25 peptide, read-out: Ki, calculated from Y intercept of Fig. 2e): 65 ± 6 nM
- IC50 ([1]; [H3 1-25]/Km 1.25, Figure 2e, average of replicates, read-out: Average IC50): 0.0749 µM
- IC50 ([1]; [H3 1-25]/Km 1.25, Figure 2e, read-out: IC50 (µM), replicates): 0.0747 µM and 0.0785 µM and 0.0703 µM and 0.0762 µM
- IC50 ([1]; [H3 1-25]/Km 2.5, Figure 2e, average of replicates, read-out: Average IC50): 0.0926 µM
- IC50 ([1]; [H3 1-25]/Km 2.5, Figure 2e, read-out: IC50 (µM), replicates): 0.0843 µM and 0.0895 µM and 0.0878 µM and 0.109 µM
- IC50 ([1]; [H3 1-25]/Km 5, Figure 2e, average of replicates, read-out: Average IC50): 0.125 µM
- IC50 ([1]; [H3 1-25]/Km 5, Figure 2e, read-out: IC50 (µM), replicates): 0.129 µM and 0.102 µM and 0.118 µM and 0.151 µM
- IC50 ([1]; [H3 1-25]/Km 10, Figure 2e, average of replicates, read-out: Average IC50): 0.169 µM
- IC50 ([1]; [H3 1-25]/Km 10, Figure 2e, read-out: IC50 (µM), replicates): 0.138 µM and 0.151 µM and 0.173 µM and 0.215 µM
- IC50 ([1]; [H3 1-25]/Km 20, Figure 2e, average of replicates, read-out: Average IC50): 0.254 µM
- IC50 ([1]; [H3 1-25]/Km 20, Figure 2e, read-out: IC50 (µM), replicates): 0.228 µM and 0.278 µM and 0.257 µM
- IC50 ([1]; [SAM]/Km 0.18, Figure 2d, average of replicates, read-out: Average IC50): 0.893 µM
- IC50 ([1]; [SAM]/Km 0.18, Figure 2d, read-out: IC50 (µM), replicates): 0.838 µM and 0.633 µM and 1.03 µM and 1.07 µM
- IC50 ([1]; [SAM]/Km 0.36, Figure 2d, average of replicates, read-out: Average IC50): 0.704 µM
- IC50 ([1]; [SAM]/Km 0.36, Figure 2d, read-out: IC50 (µM), replicates): 0.519 µM and 0.651 µM and 0.615 µM and 1.03 µM
- IC50 ([1]; [SAM]/Km 0.73, Figure 2d, average of replicates, read-out: Average IC50): 0.374 µM
- IC50 ([1]; [SAM]/Km 0.73, Figure 2d, read-out: IC50 (µM), replicates): 0.349 µM and 0.395 µM and 0.369 µM and 0.382 µM
- IC50 ([1]; [SAM]/Km 1.46, Figure 2d, average of replicates, read-out: Average IC50): 0.275 µM
- IC50 ([1]; [SAM]/Km 1.46, Figure 2d, read-out: IC50 (µM), replicates): 0.27 µM and 0.288 µM and 0.249 µM and 0.292 µM
- IC50 ([1]; [SAM]/Km 2.92, Figure 2d, average of replicates, read-out: Average IC50): 0.21 µM
- IC50 ([1]; [SAM]/Km 2.92, Figure 2d, read-out: IC50 (µM), replicates): 0.18 µM and 0.228 µM and 0.197 µM and 0.236 µM
- Effect of SAH on PRDM9 inhibition by MRK-740, compared with SAM ([1]; increasing SAH in parallel to SAM): did not have the same effect
- Functional activity (in words) [2]: no functional activity
- H3K4me3/GFP - western blot ([3]; 0.256 µM): 72.3313 % control and 76.4161 % control
- H3K4me3/GFP - western blot ([3]; 0.64 µM): 45.8788 % control and 51.2576 % control
- H3K4me3/GFP - western blot ([3]; 1.6 µM): 25.9658 % control and 41.0483 % control
- H3K4me3/GFP - western blot ([3]; 4 µM): 12.0678 % control and 16.7081 % control
- H3K4me3/GFP - western blot ([3]; 10 µM): 8.819 % control and 7.277 % control
- Inhibition of H3K4 methylation in MCF7 cells, compared with HEK293T (in words) ([3]; 20 h): equipotent inhibitor of H3K4 methylation
